Like-named read-outs stand apart in the source and are kept apart here.

The term Hill coefficient denotes a measure of the steepness of the concentration-response curve.

Experiment [1] deals with Plasmodium falciparum strain 3D7. Description: Anti-plasmodial activity assay (SYBR Green I, 72 h). The class given is cell-based. The method, then: Size-exclusion chromatography – Multi angle laser light scattering (SEC-MALLS) 50  µg of TmPPase purified in DDM with IDP (1 mM) and IDP+ATC (1 mM each) were run through a Superdex 200 10/300 GL equilibrated with a buffer containing 50 mM MES-NaOH pH 6.5, 50 mM KCl, 5 mM MgCl2, 2 mM DTT and 0.05% DDM using a HPLC-system (Shimadzu).
The eluted samples from the column were analysed using UV-absorbance, refractive index (Optilab rEX, Wyatt) and multi angle laser light scattering (miniDAWN TREOS, Wyatt) detectors and the enzyme molecular mass was calculated using ASTRA software (Wyatt).
Anti-plasmodial activity assay
For the in vitro anti-plasmodial activity assay, Plasmodium falciparum strain 3D7 was maintained in culture as described previously (56). Briefly, parasites were cultured in O+ human erythrocytes at 5% haematocrit in RPMI-1640 medium supplemented with 0.5% Albumax II (Gibco, Carlsbad, CA, USA), 200 μM hypoxanthine (Sigma, St. Louis, MO, USA) and 20 μg ml-1 gentamycin (Gibco). […]
Fifty microliters of each dilution were mixed in a 96-well plate with 150 µl of 2% haematocrit of 0.5% parasitemia (ring stage). After 72 h incubation at 37 °C, the parasite growth was quantified using fluorescent SYBR Green I®-based assay as described (58). The half-maximal inhibitory concentration (IC50) of the test compound was assessed by non-linear regression in Prism 7 (GraphPad Software). […]

In experiment [2] the target is T1, TmPPase (Thermotoga maritima, UniProt Q9S5X0).
T1 construct: His; made in house; host or cells: Saccharomyces cerevisiae strain BJ1991
T1 sequence (Q9S5X0 whole entry): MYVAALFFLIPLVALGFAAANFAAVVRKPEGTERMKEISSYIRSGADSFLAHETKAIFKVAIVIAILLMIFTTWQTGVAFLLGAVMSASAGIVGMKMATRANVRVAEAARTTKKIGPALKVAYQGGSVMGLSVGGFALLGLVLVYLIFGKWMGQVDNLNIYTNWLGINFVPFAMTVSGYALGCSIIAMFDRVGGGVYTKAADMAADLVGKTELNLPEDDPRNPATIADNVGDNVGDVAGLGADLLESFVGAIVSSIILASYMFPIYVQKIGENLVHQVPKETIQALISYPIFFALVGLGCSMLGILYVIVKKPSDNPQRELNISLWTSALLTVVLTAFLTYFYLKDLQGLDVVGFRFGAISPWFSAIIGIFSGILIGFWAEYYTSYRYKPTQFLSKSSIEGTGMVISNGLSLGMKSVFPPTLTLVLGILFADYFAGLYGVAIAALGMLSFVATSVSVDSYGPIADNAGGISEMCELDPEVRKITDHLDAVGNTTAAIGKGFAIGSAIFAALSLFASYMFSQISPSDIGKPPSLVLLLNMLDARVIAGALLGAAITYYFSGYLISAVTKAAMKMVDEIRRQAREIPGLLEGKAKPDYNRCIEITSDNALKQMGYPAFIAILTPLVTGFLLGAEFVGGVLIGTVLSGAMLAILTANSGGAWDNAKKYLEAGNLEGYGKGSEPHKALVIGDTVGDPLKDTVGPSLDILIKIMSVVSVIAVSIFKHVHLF
The experiment is described as follows: TmPPase activity inhibition, molybdenum blue 96-well plate assay. The class given is biochemical. The note with it: for IC50: purified TmPPase in DDM, 71°C, 2 min; for activity against TmPPase (in words): SAR discussion; for fold less active / weaker than ATC: IC50 relative to ATC. The text has this:
The screening process that led to the discovery of compound 1 (ATC) will be described in more detail elsewhere. Briefly, we tested compounds using a recently developed 96-well plate assay with TmPPase as a model system ([37]). The screening collections included compounds synthesized in our laboratories. The identification of ATC as an inhibitor was followed by the test of analogs 2 to 5. ATC and its analogs were initially developed for their antimicrobial, antiviral, and anticancer activities, as reported elsewhere ([38]).
(§1) TmPPase activity, compound screening, and kinetic experiments were done using the molybdenum blue reaction method in a purified protein solubilized in DDM ([37]). Initial reaction rates of TmPPase were determined using PPi as the substrate and ATC as the inhibitor at varying concentrations. The concentration of MgCl2 and Na4PPi required to maintain 5 mM free Mg^2+ at pH 8.0 was approximated as described previously ([41]). The reaction was done in reaction buffer [60 mM tris-HCl (pH 8.0), 5 mM free Mg^2+, 100 mM KCl, and 10 mM NaCl] at 71°C for 2 min. We chose a 2-min reaction time as it still produces a reaction product in a linear range (fig. S7).

Experiment [3] has as its system PfPPase-VP1 (in membrane). Description: Inhibition of PfPPase-VP1 in isolated membranes. The class given is biochemical. To be noted: PfPPase IC50 versus TmPPase IC50. The text has this: (§2) Fig. S6. Effect of ATC on growth of P. falciparum and on PfPPase. (A) Inhibition effect of ATC on PfPPase-VP1 (in membrane) from P. falciparum expressed in insect cell baculovirus expression system (method and further analysis will be described in more detail elsewhere). ATC […]
(§3) (B) ATC has no anti-plasmodial […]
(§4) activity up to 100  µM. (C) Anti-plasmodial activity of artemisinin, as a positive control.
(§5) (1 picture or pasted object on this page, not shown here)

Experiment [4] addresses PfPPase-VP1 (in membrane) (Plasmodium falciparum, UniProt Q8IKR1). The experiment is described as follows: Inhibition of PfPPase-VP1 in isolated membranes. The class given is biochemical.
Excerpt: as §2, §3, §4, §5

Experiment [5] addresses T1, TmPPase. The experiment is described as follows: Kinetic analysis of ATC inhibition of PPi hydrolysis by TmPPase. The class given is biochemical. How it is done:
As ATC is a potent inhibitor, we further characterized its effect on the rate of substrate (PPi) hydrolysis using a range of ATC concentrations (0.0 to 12.0 μM). We performed the kinetic assay using PPi concentrations from 0 to 1714 μM at 71°C with a single-point measurement at 2 min (Fig. 4D), having shown that this is within the linear range for initial rates (fig. S7).
The model is a variant on that used by Artukka et al. ([23]) and is required as there is half-of-the-sites reactivity. The sum of squares when fitting the inhibition curves with an ATC monomer (i.e., n = 1 in Fig. 5) is 5268, and the SD of the residuals (Sy.x) is 4.3; when fitting an ATC dimer, the values are 855 and 1.8, respectively. […] This means that ATC binds as a dimer to TmPPase.
as §1
For analysis, we used a variant of Artukka and co-workers’ method ([23]), which assumes that the two active sites in an mPPase dimer interact allosterically, with the addition of inhibitor binding to the two active sites (Fig. 5). E2 represents the dimeric enzyme, S is the substrate (Na4PPi), I is the inhibitor (ATC), and n is the number of ATC molecules bound to the enzyme. KS is a microscopic Michaelis-Menten constant, and kp is the per-site maximum rate for the substrate complex. α is the factor relating the binding of the first substrate molecule (KS) to the binding of the second, β is the factor relating the rate of hydrolysis of the E2S complex (kp) to that of the E2S2 complex, and KI1obs, KI2obs, and KI3obs are the observed inhibition constants for binding to the E2, E2S, and E2S2 complexes.
For the mechanism in Fig. 5 with n = 2 (i.e., only inhibitor dimers bind), the rate Eq. 1 ([42]) is v=(2kp+2βkp[S]/αKs)/2(1+[I]^2/(KI2obs)^2)+(Ks/[S])(1+[I]^2/(KI1obs)^2)+([S]/αKs)(1+[I]^2/(KI3obs)^2) (1) where [S] and [I] correspond to substrate and inhibitor concentrations, respectively, and the equilibrium and Michaelis-type constants are as in Fig. 5. The kinetic data were fit together to obtain all parameter values and their SEs by nonlinear regression as a function of inhibitor (0, 1.0, 2.0, 4.0, 8.0, and 12.0 μM) and substrate (0 to 1714 μM) concentrations using Prism 6.0 (GraphPad Software). Eliminating the KI1 terms had no effect on the overall quality of fit.

Experiment [6] deals with T1, TmPPase. Described as above. The class given is biochemical. The note with it: PPi conc. 1721.
Where [7] appears, read: PfPPase-VP1 expressed in insect cell baculovirus system.

Sequence of PfPPase-VP1 (in membrane) (Plasmodium falciparum, UniProt Q8IKR1) (Q8IKR1 entry or part of it): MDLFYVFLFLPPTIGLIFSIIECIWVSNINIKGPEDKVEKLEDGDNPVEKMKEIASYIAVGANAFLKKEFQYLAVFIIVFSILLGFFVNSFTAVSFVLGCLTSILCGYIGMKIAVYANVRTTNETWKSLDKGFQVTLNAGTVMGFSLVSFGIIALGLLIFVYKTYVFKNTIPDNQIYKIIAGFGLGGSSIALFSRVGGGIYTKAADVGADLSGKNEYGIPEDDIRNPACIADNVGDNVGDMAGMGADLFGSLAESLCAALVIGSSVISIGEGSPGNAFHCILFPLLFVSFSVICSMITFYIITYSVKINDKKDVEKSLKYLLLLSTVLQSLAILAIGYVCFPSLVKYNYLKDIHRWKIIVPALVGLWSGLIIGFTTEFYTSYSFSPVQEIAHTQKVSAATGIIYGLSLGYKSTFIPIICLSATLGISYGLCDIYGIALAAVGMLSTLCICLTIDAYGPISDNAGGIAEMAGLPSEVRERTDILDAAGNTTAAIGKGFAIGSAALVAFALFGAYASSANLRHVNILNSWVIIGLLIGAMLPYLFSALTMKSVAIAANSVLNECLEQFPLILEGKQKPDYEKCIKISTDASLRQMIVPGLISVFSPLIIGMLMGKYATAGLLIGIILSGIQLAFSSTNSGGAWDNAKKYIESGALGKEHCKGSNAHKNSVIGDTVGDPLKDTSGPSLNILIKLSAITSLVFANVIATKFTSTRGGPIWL

Turning to `Nc1nc2ccc(CNC(=O)c3cc4ccccc4[nH]3)cc2s1` [ATC, N-[(2-amino-6-benzothiazolyl)methyl]-1H-indole-2-carboxamide], in experiment [1] (P. falciparum survival assays), the “anti-plasmodial activity (in words)” value is given as “did not show any anti-plasmodial activity”. Besides, the IC50 in experiment [1] (Plasmodium falciparum, P. falciparum 3D7, 72 h, read-out: anti-plasmodial activity, highest concentration without activity) is over 100 µM; against TmPPase [2] it was 1.7 µM; in experiment [4] (setting [7]), 83.6 µM; in experiment [4] (isolated P. falciparum membranes, preliminary studies), about 80 µM. Besides, in experiment [3], the “fold lower than in T. maritima test system” value is given as “at least 40 fold”. Besides, the logIC50 in experiment [4] (setting [7]) was 1.9. The mode of inhibition entry at TmPPase [5] was “uncompetitive dimeric inhibitor”. The “fold weaker binding to E2S2 than to E2S” value at TmPPase [5] (KI3obs versus KI2obs) is “about 2.5 fold”. The Hill constant on TmPPase [5] (PPi conc. 35) was 2.8; at TmPPase [5] (PPi conc. 71), 2.8; at TmPPase [5] (PPi conc. 142), 1.9; at TmPPase [5] (PPi conc. 1071) it was 2.2; on TmPPase [5] (PPi conc. 1428) it was 1.9; on TmPPase [5] (PPi conc. not printed (line between 142 and 1071)) it was 2.2. The same compound showed a Hill constant at TmPPase [6] of 2.0. The Ki is at least 250 µM on TmPPase [5] (binding to E2 (no substrate), data not shown, read-out: KI1 (mean value when included in the fit)); 3.18 ± 0.15 µM on TmPPase [5] (observed inhibition constant for binding to the E2S2 complex, n = 2 (ATC dimer), read-out: KI3obs); 1.37 ± 0.09 µM on TmPPase [5] (observed inhibition constant for binding to the E2S complex, n = 2 (ATC dimer), read-out: KI2obs). Besides, on TmPPase [5] (enzyme without substrate), the “binding to E2 (in words)” value is “does not bind to E2 at concentrations we are able to achieve”. Moreover, the “Hill coefficient for ATC binding” value on TmPPase [5] (substrate concentrations greater than 100 μM) is 2. This compound also returned a Hill coefficient on TmPPase [5] (very low substrate concentrations (below 100 μM)) of 3.
Take `Nc1nc2ccc(CNC(=O)c3ccccc3)cc2s1` [compound 2]: on TmPPase [2], the “activity against TmPPase (in words)” value was “inactive” and the IC50 was over 500 µM.
Taken in the same sequence, the figures for `Nc1nc2ccc(CNC(=O)c3cccs3)cc2s1` [compound 3] were “inactive” and over 500 µM.
For the compound `Nc1nc2ccc(CNC(=O)c3ccco3)cc2s1` [compound 4], at TmPPase [2], the “fold less active / weaker than ATC” value is given as “approximately 10 fold”.
For `Nc1nc2ccc(CNC(=O)c3ccc[nH]3)cc2s1` [compound 5], the “fold less active / weaker than ATC” value on TmPPase [2] is “approximately 10 fold”.
As to `Nc1nc2ccc(CNC(=O)c3cc4cccc(Br)c4[nH]3)cc2s1` [compound 6], at TmPPase [2], the IC50 amounted to 21.4 µM.
For `Nc1nc2ccc(CNC(=O)c3nc4ccccc4[nH]3)cc2s1` [compound 9], on TmPPase [2], the “activity against TmPPase (in words)” value is “fully inactive” and the IC50 was over 500 µM.

Source of the values: article PMC6530997, “Asymmetry in catalysis by Thermotoga maritima membrane-bound pyrophosphatase demonstrated by a nonphosphorus allosteric inhibitor” (Science Advances, 2019).
